Data reported in article PMC9879991, “Biomolecular condensates formed by designer minimalistic peptides” (Nature Communications, 2023).
No end group written: not given here.

Tests used:
GFP = biological target: T1, GFP (Aequorea victoria, UniProt P42212); test: Encapsulation efficiency of peptide droplets, GFP payload; type: physicochemical; settings: C initial 50 µg/ml, 20 mM peptide; for %EE: 20 mM Tris + 0.2 M NaCl pH 8, 15,000 g 10 min, supernatant fluorescence Ex 395/Em 509 nm
T1 construct: purchased Abcam (purchased from Zotal)
Source text: (§1) Next, we studied how peptide composition affects the encapsulation efficiency of the droplets by using GFP, rhodamine B, and fluorescein as fluorescent payload model systems (Fig. 4). We analyzed the encapsulation efficiency of the fluorescent payloads by using both confocal microscopy and absorbance measurements of the payloads in the dilute vs. the condensed phase (Fig. 4a–c). […] WGR-1 has the highest EE of fluorescein. In addition to π-π interactions, WGR-1 might form hydrogen bonding with the hydroxyl groups or electrostatic interactions with the deprotonated carboxylic acid of the dye.
(§2) Stock solutions (1 mM) of the fluorescein and rhodamine B dye molecules were prepared in 20 mM Tris buffer. Coacervate solutions of 20 mM peptide were prepared in 20 mM Tris + 0.2 M NaCl at pH 8. From these, a volume of 148.5 µl was mixed with 1.5 µl of dye solution in a 1.5 ml Eppendorf tube and pipetted. After 10 min the samples were centrifuged at 15,000 × g for 10 min. A volume of 120 μl from the supernatant was collected and vortexed and then the absorbance of 35 μl triplicates was measured (at λ = 490 nm for fluorescein and λ = 555 nm for RhB) in a 384 well black plate by Biotek H1 synergy plate reader (purchased from Lumitron, Israel). For GFP, a 7.5 µl of 20 mM Tris buffer to a 7.5 μl GFP aliquot from the purchased stock solution. The 15 µl of GFP solution was added to 135 µl of peptide solution and was mixed in a 1.5 ml Eppendorf tube and pipetted. The concentration of GFP at the supernatant was measured via fluorescence. All experiments were performed in triplicate. The concentration of the supernatant solutions determinate by calibration curves. Imaging was made to 30 μl of uncentrifuged samples. Efficiency of encapsulation (%EE) was calculated using Eq. 2. 2 %EE=CT−Csup/CT

[1] = Encapsulation efficiency of peptide droplets, fluorescein payload; type: physicochemical; settings: C initial 10 µM, 20 mM peptide; for %EE: 20 mM Tris + 0.2 M NaCl pH 8, 15,000 g 10 min, supernatant absorbance 490 nm
Source text: as §1, §2

[2] = Turbidity analysis of peptide LLPS at 20 mM at varying pH; type: physicochemical; settings: mean, Figure S8, for NMR experiment
Experimental: 150 μl of 20 mM peptide solutions were prepared in 20 mM Tris buffer. The pH was adjusted to the desired value of 6, 7, 8, 9, 10, and 11 then the turbidity of 35 μl was measured in triplicates at λ = 500 nm using a BioTek H1 synergy plate reader (purchased from Lumitron, Israel).
Supplementary Figure 7. CD analysis of peptides at 1 mM with and without NaCl.
Supplementary Figure 8. a. Turbidity analysis of peptide LLPS at a concentration of 20 mM at varying pH values. WGR-10 contains a Pro/Gln substitution. Each point represents an average of n=3, data are presented as mean values +/- SD b. Optical microscopy images of peptides at 20 mM at pH
10. Scale bar=50 μm. Source data are provided as a Source Data file. […]

[3] = Turbidity analysis of WGR-1 with and without 0.5% FITC-labeled peptide; type: physicochemical; settings: Tris buffer pH 8, 0.2 M NaCl, mean of n=3
[4] = solution NMR
Experimental: pKa values were determined by following the chemical shifts of Trp1-Hα and Trp1-Hβ at pH values of 6.0, 7.0, 7.5, 8.0 and
9.0. The 10 obtained chemical shifts were fitted to the Henderson-Hasselbach equation with the assumption that peak
position is a weighted average of the two end-point chemical shifts; optimization parameters were the two end-point shifts
(representing fully ionized and fully deionized forms of the N-terminal amino group of the peptide. Errors were determined
by Monte Carlo simulations with a measurement error of 0.01 ppm for all chemical shifts.

[5] = Phase diagram in citrate / tris / ammonium bicarbonate buffers; type: physicochemical; settings: 20 mM citrate (pH 3-7)/tris (pH 7-9)/ammonium bicarbonate (pH 9-12), 0.2 M NaCl, room temperature
Experimental: Since this analysis is highly sensitive to pH fluctuation, we also created phase diagrams for all peptides using three different buffers that are optimized for specific pH range: citrate buffer for pH 3–7, tris buffer for pH 7–9 and ammonium bicarbonate for pH 9–12 (Supplementary Fig. 1). While the trend in these phase diagrams is similar to that obtained only in tris buffer, the critical pH for LLPS is lower in citrate buffer for all LLPS-promoting peptides (Supplementary Fig. 1).
150 μl of 5 mM, 8 mM, 10 mM, 15 mM, 20 mM, and 30 mM peptide solutions were prepared in either 20 mM tris buffer or 20 mM of the following three buffers: citrate buffer for pH 3–7 tris buffer for pH 7–9 and ammonium bicarbonate for pH 9–12, with 0.2 M NaCl. The pH was increased gradually until a turbidity appeared and measured as described below. All measurements were performed at room temperature. Data points represent averages of three independent measurements. Turbidity of 35 μl samples was estimated in triplicates from sample absorbance at λ = 500 nm as described below.
Supplementary Figure 1. Phase diagram of the peptides as a function of peptide concentration and pH, in different buffers: citrate buffer for pH 3-7, tris buffer for pH 7-9, and ammonium bicarbonate buffer for pH 9-12. 0.2 M NaCl was added to all samples, measurements were obtained at room […]
temperature. […] Values represent average pH of n=3 independent measurements, data are presented as mean values +/- SD. […]

## WGRGRGRGWPGVGY [WGR-1]
GFP; replicate 1, given as fraction
  %EE: 0.8616
GFP; replicate 2, given as fraction
  %EE: 0.9526
GFP; replicate 3, given as fraction
  %EE: 0.9328
GFP; 20 mM Tris + 0.2 M NaCl pH 8, supernatant fluorescence, average of replicates, in percent
  Encapsulation efficiency (EE): 91.5647%
[1]; replicate 1, given as fraction
  %EE: 0.888
[1]; replicate 2, given as fraction
  %EE: 0.8098
[1]; replicate 3, given as fraction
  %EE: 0.7632
[1]; 20 mM Tris + 0.2 M NaCl pH 8, supernatant absorbance 490 nm, mean of n=3, in percent
  Encapsulation efficiency (EE): 82.0333%
[2]; pH 6
  Turbidity as asorbance at 500 nm: 0.0085
[2]; pH 7
  Turbidity as asorbance at 500 nm: 0.019
[2]; pH 8
  Turbidity as asorbance at 500 nm: 0.01867
[2]; pH 9
  Turbidity as asorbance at 500 nm: 0.03567
[2]; pH 10
  Turbidity as asorbance at 500 nm: 1.253
[2]; pH 11
  Turbidity as asorbance at 500 nm: 1.988
[3]; peptide concentration 10 (mM)
  Turbidity as asorbance at 350 nm: 0.3393
[3]; peptide concentration 20 (mM)
  Turbidity as asorbance at 350 nm: 2.135
[4]; Trp1-Hα and Trp1-Hβ shifts at pH 6.0, 7.0, 7.5, 8.0, 9.0, Henderson-Hasselbach fit, error by Monte Carlo
  pKa of the N-terminal amine group: 7.50 ± 0.01
[4]; pH-induced chemical shift changes
  pKa of the Tyr14 phenolic ring: ~ 10
[5]; 8 mM peptide, replicate 1
  pH at which turbidity (LLPS) appears: 8.43
[5]; 8 mM peptide, replicate 2
  pH at which turbidity (LLPS) appears: 8.47
[5]; 8 mM peptide, replicate 3
  pH at which turbidity (LLPS) appears: 8.55
[5]; 10 mM peptide, mean of n=3
  pH at which turbidity (LLPS) appears: 6.79
[5]; 10 mM peptide, replicate 1
  pH at which turbidity (LLPS) appears: 6.32
[5]; 10 mM peptide, replicate 2
  pH at which turbidity (LLPS) appears: 7.04
[5]; 10 mM peptide, replicate 3
  pH at which turbidity (LLPS) appears: 7.01
[5]; 15 mM peptide, mean of n=3
  pH at which turbidity (LLPS) appears: 6.34
[5]; 15 mM peptide, replicate 1
  pH at which turbidity (LLPS) appears: 6.41
[5]; 15 mM peptide, replicate 2
  pH at which turbidity (LLPS) appears: 6.41
[5]; 15 mM peptide, replicate 3
  pH at which turbidity (LLPS) appears: 6.2
[5]; 20 mM peptide, mean of n=3
  pH at which turbidity (LLPS) appears: 4.96
[5]; 20 mM peptide, replicate 1
  pH at which turbidity (LLPS) appears: 5.1
[5]; 20 mM peptide, replicate 2
  pH at which turbidity (LLPS) appears: 4.89
[5]; 20 mM peptide, replicate 3
  pH at which turbidity (LLPS) appears: 4.89
[5]; 30 mM peptide, replicate 1
  pH at which turbidity (LLPS) appears: 4.78
[5]; 30 mM peptide, replicate 2
  pH at which turbidity (LLPS) appears: 4.27
[5]; 30 mM peptide, replicate 3
  pH at which turbidity (LLPS) appears: 4.52
